Experimental data reported in patent US20260159486A1, “BENZO[H]QUINAZOLINE-4-AMINE DERIVATIVES FOR THE TREATMENT OF CANCER” (Redona Therapeutics, Inc., priority 2021, published 2026).

Columns and labels:
MDA-MB-231 cells = test: MDA-MB-231 proliferation assay; type: cell-based; conditions: Homo sapiens, MDA-MB-231, 72 h, YO-PRO-1 Iodide readout
Outline: (§1)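 Cells seeded at 750 per well, treated next day for 72 h at 37 °C with 0.5% final DMSO. Cell number read by YO-PRO-1 fluorescence after lysis, normalized to DMSO (100%) and time-zero cells (0%). GI50 from 4-parameter logistic fit, maximum constrained to 100%.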

recombinant human CLK3 = biological target: T1, recombinant human CLK3 (Homo sapiens, UniProt P49761); test: CLK3 kinase assay (LANCE Ultra); type: biochemical; conditions: CLK3 0.5 nM, ATP 300 μM, 3 hours at 30° C.
T1 construct: purchased Thermo Fisher Scientific PV3826
Outline: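 Recombinant human CLK3 (0.5 nM) with ULight-CREBtide (50 nM) and 300 μM ATP, 3 h at 30 °C in kinase buffer; EDTA stop, then Eu-anti-phospho-CREB antibody (2 nM, 1 h RT), TR-FRET read at 665/620 nm. Inhibition normalized to DMSO and no-ATP wells; IC50 from 4-parameter fit, ten 1:3 concentrations in duplicate.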

CAL-51 cells = test: CAL-51 proliferation assay; type: cell-based; conditions: Homo sapiens, CAL-51, 72 h, YO-PRO-1 Iodide readout
Outline: as §1

T1 sequence (P49761 whole entry): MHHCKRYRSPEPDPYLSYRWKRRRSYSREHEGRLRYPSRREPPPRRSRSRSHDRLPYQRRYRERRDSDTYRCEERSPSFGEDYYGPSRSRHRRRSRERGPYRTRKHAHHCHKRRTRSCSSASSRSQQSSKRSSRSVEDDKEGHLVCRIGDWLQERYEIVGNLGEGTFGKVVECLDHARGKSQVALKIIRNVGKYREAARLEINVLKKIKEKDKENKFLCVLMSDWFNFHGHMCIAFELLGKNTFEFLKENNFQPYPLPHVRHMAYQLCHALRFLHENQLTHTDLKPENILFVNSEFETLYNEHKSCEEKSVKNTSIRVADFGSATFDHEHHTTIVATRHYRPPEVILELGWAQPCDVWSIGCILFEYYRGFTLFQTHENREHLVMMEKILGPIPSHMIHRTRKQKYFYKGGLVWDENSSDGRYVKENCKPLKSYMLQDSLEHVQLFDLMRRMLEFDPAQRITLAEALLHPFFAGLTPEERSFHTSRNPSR

Structure (SMILES)	GI50 (MDA-MB-231 cells)	IC50 (recombinant human CLK3)	GI50 (CAL-51 cells)
CC1(C)Cc2c(ccc(O[C@H]3CC[C@H](N)CC3)c2N2CCC(C#N)C2)-c2ncnc(N)c21 (stereo partly drawn) [Example 66, 1-[4-amino-8-(trans-4-aminocyclohexoxy)-5,5-dimethyl-6H-benzo[h]quinazolin-7-yl]pyrrolidine-3-carbonitrile]	< 100 nM	< 30 nM	< 100 nM
CCN(C)c1c(O[C@H]2CC[C@H](N)CC2)ccc2c1CC(C)(C)c1c(N)ncnc1-2 [Example 67, 8-(trans-4-aminocyclohexoxy)-N7-ethyl-N7,5,5-trimethyl-6H-benzo[h]quinazoline-4,7-diamine]	< 100 nM	< 30 nM	< 100 nM
CNc1c(O[C@H]2CC[C@H](N)CC2)ccc2c1CC(C)(C)c1c(N)ncnc1-2 [Example 68, 8-(trans-4-aminocyclohexoxy)-N7,5,5-trimethyl-6H-benzo[h]quinazoline-4,7-diamine]	100 to 2000 nM	30 to 100 nM	< 100 nM
CN(c1c(O[C@H]2CC[C@H](N)CC2)ccc2c1CC(C)(C)c1c(N)ncnc1-2)S(=O)(=O)CCC(=O)O [Example 69, 3-[[4-amino-8-(trans-4-aminocyclohexoxy)-5,5-dimethyl-6H-benzo[h]quinazolin-7-yl]-methyl-sulfamoyl]propanoic acid]	> 2000 nM	< 30 nM	> 2000 nM
Nc1ncnc2c1C1(CCCC1)Cc1c-2ccc(O[C@H]2CC[C@@H](N)CC2)c1NCCO [Example 70, 2-[[4-amino-8-(cis-4-aminocyclohexoxy)spiro[6H-benzo[h]quinazoline-5,1′-cyclopentane]-7-yl]amino]ethanol]	100 to 2000 nM	< 30 nM	100 to 2000 nM
CC1(C)Cc2c(ccc(O[C@H]3CC[C@H](N)CC3)c2OCCC#N)-c2ncnc(N)c21 [Example 71, 3-[[4-amino-8-(trans-4-aminocyclohexoxy)-5,5-dimethyl-6H-benzo[h]quinazolin-7-yl]oxy]propanenitrile]	100 to 2000 nM	< 30 nM	< 100 nM
COCCN(C)c1c(O[C@H]2CC[C@H](N)CC2)ccc2c1CC1(CCCC1)c1c(N)ncnc1-2 [Example 72, 8-(trans-4-aminocyclohexoxy)-N7-(2-methoxyethyl)-N7-methyl-spiro[6H-benzo[h]quinazoline-5,1′-cyclopentane]-4,7-diamine]	100 to 2000 nM	101 to 1000 nM	100 to 2000 nM
CN(c1c(O[C@H]2CC[C@H](N)CC2)ccc2c1CC(C)(C)c1c(N)ncnc1-2)S(=O)(=O)CCC#N [Example 74, N-[4-amino-8-(trans-4-aminocyclohexoxy)-5,5-dimethyl-6H-benzo[h]quinazolin-7-yl]-2-cyano-N-methyl-ethanesulfonamide]	100 to 2000 nM	< 30 nM	< 100 nM
COCCN(C)c1c(O[C@H]2CC[C@@H](N)CC2)ccc2c1CC1(CCCC1)c1c(N)ncnc1-2 [Example 75, 8-(cis-4-aminocyclohexoxy)-N7-(2-methoxyethyl)-N7-methyl-spiro[6H-benzo[h]quinazoline-5,1′-cyclopentane]-4,7-diamine]	100 to 2000 nM	< 30 nM	< 100 nM
CC1(C)Cc2c(ccc(O[C@H]3CC[C@H](N)CC3)c2NCC2(C#N)CC2)-c2ncnc(N)c21 [Example 76, 1-[[[4-amino-8-(trans-4-aminocyclohexoxy)-5,5-dimethyl-6H-benzo[h]quinazolin-7-yl]amino]methyl]cyclopropanecarbonitrile]	100 to 2000 nM	101 to 1000 nM	100 to 2000 nM
CC1(C)Cc2c(ccc(O[C@H]3CC[C@H](N)CC3)c2N2CCC(C(N)=O)C2)-c2ncnc(N)c21 (stereo partly drawn) [Example 77, 1-[4-amino-8-(trans-4-aminocyclohexoxy)-5,5-dimethyl-6H-benzo[h]quinazolin-7-yl]pyrrolidine-3-carboxamide]	> 2000 nM	< 30 nM	100 to 2000 nM
CN(CCC#N)c1c(OC2CCCNCC2)ccc2c1CC(C)(C)c1c(N)ncnc1-2 (stereo not drawn) [Example 78, 3-[[4-amino-8-(azepan-4-yloxy)-5,5-dimethyl-6H-benzo[h]quinazolin-7-yl]-methyl-amino]propanenitrile]	< 100 nM	< 30 nM	< 100 nM

Further lines, with some results ahead:

GI50 (MDA-MB-231 cells)	IC50 (recombinant human CLK3)	Structure (SMILES)	GI50 (CAL-51 cells)
> 2000 nM	30 to 100 nM	Nc1ncnc2c1C1(CCCC1)Cc1c-2ccc(O[C@H]2CC[C@@H](N)CC2)c1NCC(=O)O [Example 79, 2-[[4-amino-8-(cis-4-aminocyclohexoxy)spiro[6H-benzo[h]quinazoline-5,1′-cyclopentane]-7-yl]amino]acetic acid]	> 2000 nM
100 to 2000 nM	< 30 nM	CN(CCN)c1c(O[C@H]2CC[C@H](N)CC2)ccc2c1CC(C)(C)c1c(N)ncnc1-2 [Example 80, 8-(trans-4-aminocyclohexoxy)-N7-(2-aminoethyl)-N7,5,5-trimethyl-6H-benzo[h]quinazoline-4,7-diamine]	100 to 2000 nM
100 to 2000 nM	< 30 nM	CC1(C)Cc2c(ccc(O[C@H]3CC[C@H](N)CC3)c2CCCC#N)-c2ncnc(N)c21 [Example 81, 4-[4-amino-8-(trans-4-aminocyclohexoxy)-5,5-dimethyl-6H-benzo[h]quinazolin-7-yl]butanenitrile]	< 100 nM
100 to 2000 nM	< 30 nM	COc1ccc2c(c1NC[C@@H]1CNC(=O)O1)CC(C)(C)c1c(N)ncnc1-2 [Example 82, (5R)-5-[[(4-amino-8-methoxy-5,5-dimethyl-6H-benzo[h]quinazolin-7-yl)amino]methyl]oxazolidin-2-one]	< 100 nM
< 100 nM	< 30 nM	CN(CCO)c1c(O[C@H]2CC[C@@H](N)CC2)ccc2c1CC1(CCCC1)c1c(N)ncnc1-2 [Example 83, 2-[[4-amino-8-(cis-4-aminocyclohexoxy)spiro[6H-benzo[h]quinazoline-5,1′-cyclopentane]-7-yl]-methyl-amino]ethanol]	< 100 nM
100 to 2000 nM	30 to 100 nM	CC1(C)Cc2c(ccc(O[C@H]3CC[C@H](N)CC3)c2NC2CC2)-c2ncnc(N)c21 [Example 84, 8-(trans-4-aminocyclohexoxy)-N7-cyclopropyl-5,5-dimethyl-6H-benzo[h]quinazoline-4,7-diamine]	< 100 nM
> 2000 nM	30 to 100 nM	CN(CCC(=O)O)c1c(O[C@H]2CC[C@H](N)CC2)ccc2c1CC(C)(C)c1c(N)ncnc1-2 [Example 85, 3-[[4-amino-8-(trans-4-aminocyclohexoxy)-5,5-dimethyl-6H-benzo[h]quinazolin-7-yl]-methyl-amino]propanoic acid]	> 2000 nM
> 2000 nM	< 30 nM	CN(c1c(O[C@H]2CC[C@H](N)CC2)ccc2c1CC(C)(C)c1c(N)ncnc1-2)S(=O)(=O)CCC(N)=O [Example 86, 3-[[4-amino-8-(trans-4-aminocyclohexoxy)-5,5-dimethyl-6H-benzo[h]quinazolin-7-yl]-methyl-sulfamoyl]propanamide]	100 to 2000 nM
100 to 2000 nM	30 to 100 nM	COCCNc1c(O[C@H]2CC[C@@H](N)CC2)ccc2c1CC1(CCCC1)c1c(N)ncnc1-2 [Example 87, 8-(cis-4-aminocyclohexoxy)-N7-(2-methoxyethyl)spiro[6H-benzo[h]quinazoline-5,1′-cyclopentane]-4,7-diamine]	100 to 2000 nM
> 2000 nM	30 to 100 nM	CN(CC(C)(C)C(N)=O)c1c(O[C@H]2CC[C@H](N)CC2)ccc2c1CC(C)(C)c1c(N)ncnc1-2 [Example 88, 3-[[4-amino-8-(trans-4-aminocyclohexoxy)-5,5-dimethyl-6H-benzo[h]quinazolin-7-yl]-methyl-amino]-2,2-dimethyl-propanamide]	100 to 2000 nM
100 to 2000 nM	101 to 1000 nM	COc1ccc2c(c1NCC[C@@H]1CNC(=O)O1)CC(C)(C)c1c(N)ncnc1-2 [Example 89, (5R)-5-[2-[(4-amino-8-methoxy-5,5-dimethyl-6H-benzo[h]quinazolin-7-yl)amino]ethyl]oxazolidin-2-one]	100 to 2000 nM
100 to 2000 nM	< 30 nM	CC1(C)Cc2c(ccc(O[C@H]3CC[C@H](N)CC3)c2C(=O)NCC#N)-c2ncnc(N)c21 [Example 90, 4-amino-8-(trans-4-aminocyclohexoxy)-N-(cyanomethyl)-5,5-dimethyl-6H-benzo[h]quinazoline-7-carboxamide]	100 to 2000 nM
< 100 nM	< 30 nM	CN(CC(C)(C)C#N)c1c(O[C@H]2CC[C@H](N)CC2)ccc2c1CC(C)(C)c1c(N)ncnc1-2 [Example 91, 3-[[4-amino-8-(trans-4-aminocyclohexoxy)-5,5-dimethyl-6H-benzo[h]quinazolin-7-yl]-methyl-amino]-2,2-dimethyl-propanenitrile]	< 100 nM
< 100 nM	< 30 nM	CC(CCO)c1c(O[C@H]2CC[C@H](N)CC2)ccc2c1CC(C)(C)c1c(N)ncnc1-2 (stereo partly drawn) [Example 92, 3-[4-amino-8-(trans-4-aminocyclohexoxy)-5,5-dimethyl-6H-benzo[h]quinazolin-7-yl]butan-1-ol]	< 100 nM
< 100 nM	< 30 nM	CN(CCC#N)c1c(OC2CCNCC2)ccc2c1CC(C)(C)c1c(N)ncnc1-2 [Example 93, 3-[[4-amino-5,5-dimethyl-8-(4-piperidyloxy)-6H-benzo[h]quinazolin-7-yl]-methyl-amino]propanenitrile]	< 100 nM
